Source: patent publication US20100040738A1, “Extension Of Beverage Shelf-Stability By Solute-Ligand Complexes” (PepsiCo., Inc., priority 2008, published 2010)
Values after ≈ are worked out from the molar mass of the structure shown. Like-named read-outs stand apart in the source and are kept apart here.

Experiments:
spoilage organisms = test: MIC of antimicrobial candidates (Table II); assay type: cell-based
Experimental: “Minimal inhibitory concentration” (MIC) is another term for which no standard time period is included in the definition.
(§1) In each of the examples below, the period of incubation is 16 weeks which relates to the standard shelf life period for beverages distributed at ambient temperature. If a chemical simply retards growth for a period less than 16 weeks, then it will not fulfill the need of the manufacturer. The concentration of the chemical employed to prohibit spoilage is often reported as the Minimum Inhibitory Concentration (MIC). The MIC value of a candidate compound for use as a beverage preservative is the concentration of the candidate which permits the beverage to remain free of spoilage for a period of 16 weeks.

[1] = test system: Saccharomyces cerevisiae, Zygosaccharomyces balii and Zygosaccharomyces bisporus; test: Inhibition of growth of 3 spoilage yeast in model beverage, 16 weeks incubation; assay type: cell-based; settings: for amount in complex required to inhibit growth of 3 different spoilage yeast: in complex with alpha or beta cyclodextrin
Experimental: as §1
(§2) The base composition of the model beverage per liter is: […]
as §2
A model high acid beverage system (pH <4.6) of 10% juice content was prepared to test efficacy of methoxycinnamate either in the non-complex form or as the alpha (α) or beta (β) cyclodextrin-included (complex) form. The base composition of the model beverage per liter is: […]

[2] = Solubility limit in model beverage system, non-complex form or cyclodextrin complex; assay type: physicochemical; settings: for solubility limit / limit of solubility in beverage: non-complex form; for limit of solubility in beverage: across test beverages
Experimental: The base composition of the model beverage per liter is:
A model high acid beverage system (pH <4.6) of 10% juice content was prepared to test efficacy of methoxycinnamate either in the non-complex form or as the alpha (α) or beta (β) cyclodextrin-included (complex) form. The base composition of the model beverage per liter is:
A model low acid beverage system (pH ≧4.6) with high water activity (>0.97) was prepared to test efficacy of methoxycinnamate either in the non-complex form or as the alpha (α) or beta (β) cyclodextrin-included (complex) form. The base composition of the model beverage per liter is:
A model high acid beverage system (pH <4.6) of 10% juice content was prepared to test efficacy of trans, trans 2,4 decadienal either in the non-complex form or as the alpha (α) or beta (β) cyclodextrin-included (complex) form. The base composition of the model beverage per liter is:
A model low acid beverage system (pH ≧4.6) with high water activity (>0.97) was prepared to test efficacy of trans, trans 2,4 decadienal either in the non-complex form or as the alpha (α) or beta (β) cyclodextrin-included (complex) form. The base composition of the model beverage per liter is: […]

[3] = at limit of solubility, summary of examples
[4] = at solubility limit concentration, low acid model tea beverage pH 5.3 (Examples 4 and 6)
[5] = in complex with α-cyclodextrin, low acid model tea beverage pH 5.3 (Examples 4 and 6)
[6] = in complex with β-cyclodextrin, low acid model tea beverage pH 5.3 (Examples 4 and 6)
[7] = high acid model beverage pH 3.4, 10% grape juice (Example 3)
[8] = low acid model tea beverage pH 5.3 (Examples 4 and 6)
[9] = high acid model beverage pH 3.4, 5% grape and 5% apple juice (Example 5)

COc1ccccc1C=CC=O [o-methoxycinnamylaldehyde]
MIC (spoilage organisms): 58 ppm

O=C(O)CCCC1CCCCC1 [Cyclohexanebutyric acid]
MIC (spoilage organisms; 2688 h, read-out: MIC): 68 µg/mL

C/C=C/C=C/C(=O)O [Sorbic acid]
MIC (spoilage organisms; 2688 h, read-out: MIC): 1200 µg/mL

C=C(C)C1CC=C(C=O)CC1 (stereo not drawn) [perillaldehyde]
MIC (spoilage organisms; 2688 h, read-out: MIC): 500 µg/mL

O=CC=Cc1ccccc1 [Cinnamaldehyde]
MIC (spoilage organisms; 2688 h, read-out: MIC): 66 µg/mL

CCCCCCCCCCO [1-Decanol]
MIC (spoilage organisms; 2688 h, read-out: MIC): 24 µg/mL

O=C(O)C=Cc1ccccc1 [Cinnamic acid]
MIC (spoilage organisms; 2688 h, read-out: MIC): 300 µg/mL

CC(=O)OCCC1CCCCC1 [2-Cyclohexylethyl acetate]
MIC (spoilage organisms; 2688 h, read-out: MIC): 102 µg/mL

CCCOC(=O)c1ccc(O)cc1 [propyl paraben, Propyl paraban]
amount in complex required to inhibit growth of 3 different spoilage yeast ([1]; summary of examples): 510-600 ppm
amount required to inhibit growth of 3 different spoilage yeast ([1]; in complex with α-cyclodextrin, high acid model beverage pH 3.4, 10% apple juice (Example 1)): 510 mg/L
amount required to inhibit growth of 3 different spoilage yeast ([1]; in complex with α-cyclodextrin, low acid model beverage pH 5.8 (Example 2)): 510 mg/L
amount required to inhibit growth of 3 different spoilage yeast ([1]; in complex with β-cyclodextrin, high acid model beverage pH 3.4, 10% apple juice (Example 1)): 600 mg/L
amount required to inhibit growth of 3 different spoilage yeast ([1]; in complex with β-cyclodextrin, low acid model beverage pH 5.8 (Example 2)): 650 mg/L

CCCCCCCCCCC=O [Undecanal]
MIC (spoilage organisms; 2688 h, read-out: MIC): 34 µg/mL

Cc1ccc(C(C)C)c(O)c1 [thymol]
MIC (spoilage organisms; 2688 h, read-out: MIC): 250 µg/mL

CCCCCCCCC(=O)O [Nonanoic acid]
MIC (spoilage organisms; 2688 h, read-out: MIC): 63 µg/mL

CCCOC(=O)c1ccccc1 [Propyl benzoate]
MIC (spoilage organisms; 2688 h, read-out: MIC): 66 µg/mL

CCCCCCCCCC=O [Decanal]
MIC (spoilage organisms; 2688 h, read-out: MIC): 47 µg/mL

methoxycinnamate
effective as a stand alone chemical preservative [1, 3]: not effective
effective as a stand alone chemical preservative ([1]; at solubility limit concentration, high acid model beverage pH 3.4, 10% grape juice (Example 3)): not effective
effective as a stand alone chemical preservative [1, 4]: did not prove effective
amount in complex required to inhibit growth of 3 different spoilage yeast ([1]; summary of examples): 400-807 ppm
amount required to inhibit growth of 3 different spoilage yeast ([1]; in complex with α-cyclodextrin, high acid model beverage pH 3.4, 10% grape juice (Example 3)): 800 mg/L
amount required to inhibit growth of 3 different spoilage yeast [1, 5]: 800 mg/L
amount required to inhibit growth of 3 different spoilage yeast ([1]; in complex with β-cyclodextrin, high acid model beverage pH 3.4, 10% grape juice (Example 3)): 420 mg/L
amount required to inhibit growth of 3 different spoilage yeast [1, 6]: 420 mg/L
MIC ([1]; in complex with β-cyclodextrin, summary of examples): 400 µg/mL
MIC ([1]; non-complex form, summary of examples): > 600 µg/mL
solubility in the form of a complex with alpha or beta cyclodextrin [2, 7]: ≤ 3690 µg/mL
solubility in the form of a complex with alpha or beta cyclodextrin [2, 8]: ≤ 3411 µg/mL
solubility limit [2, 7]: 498 µg/mL
solubility limit [2, 8]: 600 µg/mL
limit of solubility in beverage ([2]; summary of examples): 498 to 600 µg/mL
solubility in the form of a complex with alpha or beta cyclodextrin ([2]; summary of examples): ≤ 3600 µg/mL

CCCCCCCCC(=O)OC [Methyl nonaoate]
MIC (spoilage organisms): 90 ppm

CCCCCCCC1CCC(=O)O1 (stereo not drawn) [Undecalactone]
MIC (spoilage organisms): 28 ppm

CCCCC/C=C/C=C/C=O [Trans, trans, 2,4 decadienal]
MIC (spoilage organisms): 8 ppm
effective as a stand alone chemical preservative [1, 3]: not effective
effective as a stand alone chemical preservative ([1]; at solubility limit concentration, high acid model beverage pH 3.4, 5% grape and 5% apple juice (Example 5)): not effective
effective as a stand alone chemical preservative [1, 4]: did not prove effective
amount in complex required to inhibit growth of 3 different spoilage yeast ([1]; summary of examples): 57-124 ppm
amount required to inhibit growth of 3 different spoilage yeast ([1]; in complex with α-cyclodextrin, high acid model beverage pH 3.4, 5% grape and 5% apple juice (Example 5)): 60 mg/L
amount required to inhibit growth of 3 different spoilage yeast [1, 5]: 57 mg/L
amount required to inhibit growth of 3 different spoilage yeast ([1]; in complex with β-cyclodextrin, high acid model beverage pH 3.4, 5% grape and 5% apple juice (Example 5)): 125 mg/L
amount required to inhibit growth of 3 different spoilage yeast [1, 6]: 123 mg/L
solubility in the form of a complex with alpha or beta cyclodextrin [2, 9]: ≤ 280 µg/mL
solubility in the form of a complex with alpha or beta cyclodextrin [2, 8]: ≤ 280 µg/mL
solubility limit [2, 9]: 5.4 µg/mL (≈ 35.5 µM)
solubility limit [2, 8]: 5.8 µg/mL (≈ 38.1 µM)
limit of solubility in beverage ([2]; summary of examples): 57 µg/mL
solubility in the form of a complex with alpha or beta cyclodextrin ([2]; summary of examples): ≤ 280 µg/mL

C/C(C=O)=C\c1ccccc1 [methyl trans cinnamylaldehyde]
MIC (spoilage organisms): 58.4 ppm

CCCCCC1CCC(=O)O1 (stereo not drawn) [Nonanoic lactone]
MIC (spoilage organisms): 63 ppm

O=C(OCc1ccccc1)c1ccc(O)cc1 [Benzyl-4-hydroxbenzoate]
MIC (spoilage organisms): 68 ppm
